We go through 1 molecule from US20030195246A1, “Seamless soft capsule preparations containing dihydrobenzofuran derivatives” (priority 2000, published 2003).

This data set is described as follows: BO-653 stability test in different fats and oils (accelerated test, HPLC residue rate). The conditions noted are these: 80° C. for 17 hours. It is filed as physicochemical. The procedure:
A test was conducted on the effect of oxygen on decomposition of BO-653 (4,6-ditert-butyl-2,2-di-n-pentyl-5-hydroxy-2,3-dihydrobenzofuran) and its stability in various fats and oils. There were prepared samples consisting of 70 mg solutions of BO-653 in different fats and oils (soybean oil (product of Wako Pure Chemicals Industries, Ltd.), olive oil (product of Wako Pure Chemicals Industries, Ltd.), MCT (ODO-C: product of The Nisshin oil Mills, Ltd.), tricaprilin (product of Wako Pure Chemicals Industries, Ltd.) and linoleic acid (product of NOF Corp.)), each in a proportion of 50 wt % in a 5 cc glass vial, as well as a sample of 35 mg BO-653 in a 5 cc glass vial. An accelerated test was conducted at 80° C. for 17 hours, in a case with sealing of the head space of each sample vial after argon substitution and a case with sealing without argon substitution, and the residue rate was determined by HPLC measurement of the BO-653 content after the test.

Regarding `CCCCCC1(CCCCC)Cc2c(cc(C(C)(C)C)c(O)c2C(C)(C)C)O1` [BO-653, 4,6-ditert-butyl-2,2-di-n-pentyl-5-hydroxy-2,3-dihydrobenzofuran], the “stability of BO-653” value (no argon substitution (presence of oxygen), 50 wt % in soybean oil, compared with other fats and oils) was “highest stability”. Moreover, the residue rate result is “lower with no argon substitution than with argon substitution” (no argon substitution (presence of oxygen), all of the samples) and “virtually no reduction in residue rate” (with argon substitution (absence of oxygen), any of the media, including BO-653 alone).
